We go through 5 compounds from patent US20240225985A1, “BRIGHTENING COMPOSITIONS AND METHODS OF USE” (Alastin Skincare, Inc., priority 2021, published 2024).

The subject of assay [1] is melanocytes. Put plainly: In vitro melanocyte comparative analysis via absorbance readings (melanin production). It counts as cell-based. Particulars: for Regulation of melanogenesis (decreased absorption denoting decreased melanin formation): melanocytes, summary of Table 10. How it is done: Melanocytes were cultured in 6-well plates containing growth media. Once confluent, 2 concentrations of each of the 10 compounds were added to the cells in triplicate wells for 4 days. There were a total of eleven 6-well plates, one for each compound treatment and one for the vehicle control. Absorbance readings were taken on the lysates prepared for each well of the 6-well plates, normalizing for cells counts. The model was initially tested for accuracy and validated using hexapeptide-12 in view of strong gene expression results with melanocyte cell line in the first study—confirmation of decreased stimulation was obtained. Additional validation was carried out using MSH addition to media to confirm increased stimulation of melanin production. The following compounds used in this study are seen in Table 9.

The subject of assay [2] is melanocytes. The assay is described as follows: Gene expression study (RNA sequencing) in PGE2-induced melanocytes. In kind it is cell-based, human. As to conditions: melanocytes induced with 10 uM PGE2, 24 hours of compound exposure. How it is done:
Four cell types associated with pigmentation pathways—melanocytes, keratinocytes, fibroblasts and endothelial (HUVEC) cells—were analyzed for gene expression.
To simulate the UV stimulatory pigmentation pathway process, melanocytes were pre-treated with PGE2, a normal direct consequence of UV light exposure usually emanating from exposed keratinocytes. After the 48 hour attachment culture, these melanocytes were induced with 10 uM PGE2 in melanocyte media for 24 hrs. The four primary human adult dermal cell lines were cultured and plated in well plates in triplicate and then treated with 11 different compound treatments (plus DMSO control). After 48 hours of attachment culture, the remaining fibroblasts, HUVECs and keratinocytes were treated with the test compounds listed in Table 8.
After 24 hours of compound exposure, RNA lysate preparation was carried out and samples were shipped to MedGenome for RNA extraction, library construction and sequencing to 25M paired end 100 bp reads per sample. Library prep and sequencing was completed at MedGenome.

The next assay concerns MITF. The assay is described as follows: In vitro MITF gene expression test in cultured fibroblasts. In kind it is cell-based. As to conditions: 48 hours, 80 ppm Hexapeptide-12, 120 ppm Tripeptide-1 or blend of both, negative = downregulation. Here is the method: Microphthalmia-associated transcription factor (MITF) is a master regulator of pigmentation and melanin transfer and a potential new target for hyperpigmentation and melanoma. In vitro MITF gene expression tests were carried out to ascertain differences between individual peptides (tripeptide-1 and hexapeptide-12) and their combination in terms of MITF downregulation.
Specifically, the tests were conducted by culturing fibroblasts and then adding tripeptide-1, hexapeptide-12, or a combination of both. After 48 hours, MITF gene expression was analyzed. […] This increased expression continued to manifest and increased even further at the 72 hour time point.

A further assay has as its system endothelial cells. The assay is described as follows: Gene expression of PMEL, tyrosinase genes, MC1/4R, EDNRB, MITF, ERK1/2, JNK, AKT1. In kind it is cell-based. As to conditions: after treatment of endothelial cells as printed. From the text: The methods similar to Examples 3-4 were used to measure expression of PMEL, tyrosinase genes, MC1/4R, EDNRB, MITF, ERK1/2, JNK, and ANKT1.
FIGS. 10A-10D illustrates the expression of PMEL (FIG. 10A), Tyrosinase genes (FIG. 10B), MC1/4R (FIG. 10C), and EDNRB (FIG. 10D) after treatment of endothelial cells with lactoferrin (Lacto), peptide derived from lactoferrin (TCV), hexapeptide-12 (Hex12), tripeptide-1 and hexapeptide-12 (TriHex), hexapeptide-11 (Hex11), tranexamic acid (Tran acid) octapeptide (Octa), phosphatidylserine (phos), Cannabidiol (CBD), and all (total).
MITF is regulated by phosphorylation. Specifically, the MAPK and Akt pathways are known to phosphorylate MITF at certain sites. FIGS. 12A-12C illustrate the expression of ERK1/2 (MAPK3/MAPK1) (FIG. 12A), JNK (FIG. 12B), AKT1 (FIG. 12C) after treatment of endothelial cells with lactoferrin (Lacto), peptide derived from lactoferrin (TCV), hexapeptide-12 (Hex12), tripeptide-1 and hexapeptide-12 (TriHex), hexapeptide-11 (Hex11), octapeptide (Octa), phosphatidylserine (phos), Cannabidiol (CBD), and all (total).

Setting [3] is: higher concentration (Lactoferrin 1000, HEX-11 200, Phosphatidylserine 500, Silymarin 20, Sesamol 100, Tranexamic Acid 1000, HEX-12 4.9, ug/mL or ug/uL; Phytoene/Phytofluene 5.00%), 4 days, control = 0.0 row.
[4] abbreviates: lower concentration (Lactoferrin 500, HEX-11 100, Phosphatidylserine 250, Silymarin 10, Sesamol 50, Tranexamic Acid 500, HEX-12 2.9, ug/mL or ug/uL; Phytoene/Phytofluene 2.50%), 4 days, control = 0.0 row.

Ends that are not written are not given here. * marks the point of attachment. Palmitoyl = CCCCCCCCCCCCCCCC(=O)*

With “MSH: MSH addition to media to confirm increased stimulation of melanin production (SYSMEHFRWGKPV; ends and bridges not checked; UniProt P01189 138-150, looked up)”, the “Absorbance 405 nm” value in the assay with melanocytes [1] (MSH 10 nm media (validation of increased melanin production), control 1.649) amounted to 1.921. Besides, the “Absorbance 492 nm” value with melanocytes [1] (MSH 10 nm media, control 0.501) is 0.573. Further, in the assay with melanocytes [1] (MSH 10 nm media, control 0.971), the “Absorbance 490 nm” value came out at 1.155.
Turning to “Hexapeptide-12: hexapeptide-12; VGVAPG per Pal-VGVAPG (SEQ ID NO:25) in b49 (Palmitoyl-VGVAPG)”, the “melanogenic gene activity in melanocytes” value was “particularly dominant in melanogenic activity” with melanocytes [2] and “significant effects on melanogenesis activity” in the assay on melanocytes [2] (listed as hexapeptide-12). Besides, the “Absorbance 405 nm” value with melanocytes [1] (setting [3]) was determined as 0.96; with melanocytes [1] (setting [4]), 1.32. For the same compound, the “Absorbance 490 nm” value with melanocytes [1] (setting [3]) is listed as 0.64; in the assay on melanocytes [1] (setting [4]) it was 0.94. Also, the “Absorbance 492 nm” value with melanocytes [1] (setting [3]) is given as 0.46; in the assay on melanocytes [1] (setting [4]), 0.64. In addition, in the assay on melanocytes [1], the “Regulation of melanogenesis (decreased absorption denoting decreased melanin formation)” value is on record as “Regulation of melanogenesis was observed”. Besides, the “MITF gene expression (down-/upregulation)” value in the assay on MITF is given as −1.16. The entries for the “melanogenic activity (expression of PMEL, tyrosinase genes, MC1/4R, EDNRB, kinases)” value in the assay on endothelial cells and with endothelial cells (listed as hexapeptide-12) were “significant effects on such melanogenic activity” and “robust melanogenic activity”, respectively.
Regarding Tripeptide-1, the “MITF gene expression (down-/upregulation)” value was 1.72 in the assay on MITF (listed as Tripeptide) and “+1.72” in the assay with MITF (listed as tripeptide-1).
As for `NC[C@H]1CC[C@H](C(=O)O)CC1` [Tranexamic Acid, Tranexamic acid], in the assay with melanocytes [1] (setting [3]), the “Absorbance 405 nm” value is 0.406, the “Absorbance 490 nm” value is 0.243 and the “Absorbance 492 nm” value was 0.176. Also, in the assay on melanocytes [1] (setting [4]), the “Absorbance 405 nm” value is on record as 0.395, the “Absorbance 490 nm” value amounted to 0.254 and the “Absorbance 492 nm” value was 0.187. In addition, the “Regulation of melanogenesis (decreased absorption denoting decreased melanin formation)” value in the assay with melanocytes [1] is listed as “Regulation of melanogenesis was also observed”.
`Oc1ccc2c(c1)OCO2` [Sesamol, 3,4-Methylenedioxyphenol]: in the assay with melanocytes [1] (setting [3]), the “Absorbance 405 nm” value was 0.465, the “Absorbance 490 nm” value worked out at 0.252 and the “Absorbance 492 nm” value amounted to 0.183. In the assay with melanocytes [1] (setting [4]), the “Absorbance 405 nm” value came out at 0.602, the “Absorbance 490 nm” value worked out at 0.361 and the “Absorbance 492 nm” value is 0.24. Besides, the “Regulation of melanogenesis (decreased absorption denoting decreased melanin formation)” value in the assay on melanocytes [1] is reported as “Regulation of melanogenesis was also observed”.
